pIC50: −log10 of the molar value. Values joined by “and” are separate entries in the source; they are usually repeats but may differ in a detail not shown here. Equal entries are not always repeated.
Columns and labels:
[1] = 10 mg of dezocine, postoperative patients (n=187); cited from earlier work
[2] = biological target: recombinant human kappa opioid receptor (Homo sapiens, UniProt P41145); test: biochemical; settings: IC50 of inhibition of agonist-induced G protein activation
[3] = cited from earlier work

recombinant human kappa opioid receptor, sequence (P41145 whole entry): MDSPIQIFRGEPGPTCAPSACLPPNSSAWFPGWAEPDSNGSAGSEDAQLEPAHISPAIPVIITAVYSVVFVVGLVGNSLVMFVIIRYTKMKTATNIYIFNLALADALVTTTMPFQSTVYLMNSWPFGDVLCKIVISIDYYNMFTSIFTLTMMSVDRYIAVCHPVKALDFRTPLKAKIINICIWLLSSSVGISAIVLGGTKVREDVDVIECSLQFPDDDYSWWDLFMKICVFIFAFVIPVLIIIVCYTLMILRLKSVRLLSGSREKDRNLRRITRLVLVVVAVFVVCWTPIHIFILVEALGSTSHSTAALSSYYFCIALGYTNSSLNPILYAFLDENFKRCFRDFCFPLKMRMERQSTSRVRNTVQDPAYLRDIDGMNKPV

In the case of `C[C@@]12CCCCC[C@@H](Cc3ccc(O)cc31)[C@@H]2N` [dezocine], the “analgesic activity compared with meperidine” value [1] is given as “same analgesic activity as 50 mg of meperidine”, the pIC50 [2] is given as ~6.46 and ~6.10 and the “decrease of anesthetic requirement” value [3] is given as “up to 50%”.
